Assay results published in patent US7612087B2, “Heterocyclic compounds as inhibitors of beta-lactamases” (Novexel, priority 2002, dated 2009).
Structures can show the parent of a compound that is named as a salt. Where two headings read alike, the source gives them in different places.

Columns and labels:
[1] = test system: E. coli 250CF1 (Tem3); test: microbe, parasite or virus in culture; format: cell-based; conditions: compound at 5 mg/l, 24 hours at 37° C.; for MIC of Cefotaxime in combination with the compound: Trial 4, 250CF1 E. coli Tem3; for MIC of Piperacillin in combination with the compound: Trial 4, 250CF1 Tem3
Procedure: (§1) The operation is carried out as follows, using the so-called micro-dilution in liquid medium method.
(§2) A series of concentrations of the β-lactamine is prepared in the presence of a constant concentration (5 mg/l) of the product to be studied, each is then seeded with various bacterial strains.
(§3) After incubation for 24 hours in a heating chamber at 37° C., the growth inhibition is evaluated by the absence of any bacterial development, which allows the minimal inhibitory concentrations (MIC) for each strain to be determined, expressed in milligrams/l.

[2] = test system: E. coli 250HT26 (SHV1); test: MIC, micro-dilution in liquid medium, β-lactamine with product at 5 mg/l; format: cell-based; conditions: compound at 5 mg/l, 24 hours at 37° C.; for MIC of Cefotaxime in combination with the compound: Trial 6, 250HT26 E. coli SHV1; for MIC of Piperacillin in combination with the compound: Trial 6, 250HT26 SHV1
Procedure: as §1, §2, §3

[3] = test system: E. coli 250HT21 (Tem1); test: as above; format: cell-based; conditions: compound at 5 mg/l, 24 hours at 37° C.; for MIC of Cefotaxime in combination with the compound: Trial 2, 250HT21 E. coli Tem1; for MIC of Piperacillin in combination with the compound: Trial 2, 250HT21 Tem1
Procedure: as §1, §2, §3

[4] = test system: E. coli 250HT23 (Class D); test: as above; format: cell-based; conditions: compound at 5 mg/l, 24 hours at 37° C.; for MIC of Piperacillin in combination with the compound: Trial 8, 250HT23 Class D; for MIC of Cefotaxime in combination with the compound: Trial 8, 250HT23 E. coli Class D
Procedure: as §1, §2, §3

[5] = test system: P. aeruginosa 391HT7 (PSE); test: as above; format: cell-based; conditions: compound at 5 mg/l, 24 hours at 37° C.; for MIC of Cefotaxime in combination with the compound: Trial 11, 391HT7 P. aeruginosa PSE; for MIC of Piperacillin in combination with the compound: Trial 11, 391HT7 PSE
Procedure: as §1, §2, §3

[6] = test system: S. aureus 011GO66 (PeniR); test: as above; format: cell-based; conditions: compound at 5 mg/l, 24 hours at 37° C.; for MIC of Cefotaxime in combination with the compound: Trial 1, 011GO66 S. aureus PeniR; for MIC of Piperacillin in combination with the compound: Trial 1, 011GO66 peniR
Procedure: as §1, §2, §3

[7] = test system: E. coli 250BE1 (SHV4); test: as above; format: cell-based; conditions: compound at 5 mg/l, 24 hours at 37° C.; for MIC of Cefotaxime in combination with the compound: Trial 7, 250BE1 E. coli SHV4; for MIC of Piperacillin in combination with the compound: Trial 7, 250BE1 SHV4
Procedure: as §1, §2, §3

[8] = test system: P. aeruginosa 391HT8 (PSE); test: as above; format: cell-based; conditions: compound at 5 mg/l, 24 hours at 37° C.; for MIC of Cefotaxime in combination with the compound: Trial 12, 391HT8 P. aeruginosa PSE; for MIC of Piperacillin in combination with the compound: Trial 12, 391HT8 PSE
Procedure: as §1, §2, §3

[9] = test system: E. coli 250SJ1 (Tem7); test: as above; format: cell-based; conditions: compound at 5 mg/l, 24 hours at 37° C.; for MIC of Cefotaxime in combination with the compound: Trial 5, 250SJ1 E. coli Tem7; for MIC of Piperacillin in combination with the compound: Trial 5, 250SJ1 Tem7
Procedure: as §1, §2, §3

[10] = test system: E. cloacae 293HT6 (Class C); test: as above; format: cell-based; conditions: compound at 5 mg/l, 24 hours at 37° C.; for MIC of Piperacillin in combination with the compound: Trial 9, 293HT6 Class; for MIC of Cefotaxime in combination with the compound: Trial 9, 293HT6 E. cloacae Class C
Procedure: as §1, §2, §3

[11] = test system: E. coli 250HT22 (Tem2); test: as above; format: cell-based; conditions: compound at 5 mg/l, 24 hours at 37° C.; for MIC of Cefotaxime in combination with the compound: Trial 3, 250HT22 E. coli Tem2; for MIC of Piperacillin in combination with the compound: Trial 3, 250HT22 Tem2
Procedure: as §1, §2, §3

[12] = test system: Serratia 301HT6; test: as above; format: cell-based; conditions: compound at 5 mg/l; Trial 10, 301HT6 Serratia; 24 hours at 37° C.
Procedure: as §1, §2, §3

[13] = molecular target: T1, β-lactamase TEM1 (Escherichia coli, UniProt P62593); test: Inhibition of isolated β-lactamase Tem-1 (Nitrocefin hydrolysis); format: biochemical, E.coli 250HT21; conditions: 100 μM Nitrocefin, 50 mM sodium phosphate buffer pH7.0, 37° C.
T1 construct: The β-lactamases are isolated from bacterial strains which are resistant to penicillins and cephalosporins; endogenous in cells; host or cells: E. coli 250HT21 (natural producer; French-press lysate, 100,000 g supernatant)
T1 sequence (P62593 24-286 limits assumed): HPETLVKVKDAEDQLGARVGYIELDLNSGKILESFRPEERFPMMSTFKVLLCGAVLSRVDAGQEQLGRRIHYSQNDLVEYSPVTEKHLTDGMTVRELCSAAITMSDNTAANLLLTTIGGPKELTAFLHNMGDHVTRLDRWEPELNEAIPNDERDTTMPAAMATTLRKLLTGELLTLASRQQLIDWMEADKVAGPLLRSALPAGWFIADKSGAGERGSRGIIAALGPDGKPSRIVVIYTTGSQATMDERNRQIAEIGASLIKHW
Method in brief: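 TEM-1 from soluble extract of E. coli 250HT21, normalized enzyme, 100 μM Nitrocefin in 50 mM sodium phosphate pH 7.0 at 37 °C. Initial-rate hydrolysis read kinetically at 485 nm, with and without 5 min enzyme–inhibitor preincubation. CI50 from 6 or 8 concentrations in duplicate.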

[14] = molecular target: T2, β-lactamase P99 (Enterobacter cloacae, UniProt P05364); test: biochemical
T2 construct: The β-lactamases are isolated from bacterial strains which are resistant to penicillins and cephalosporins; endogenous in cells; host or cells: Enterobacter cloacae 293HT6 (natural producer; French-press lysate, 100,000 g supernatant)
T2 sequence (P05364 21-381): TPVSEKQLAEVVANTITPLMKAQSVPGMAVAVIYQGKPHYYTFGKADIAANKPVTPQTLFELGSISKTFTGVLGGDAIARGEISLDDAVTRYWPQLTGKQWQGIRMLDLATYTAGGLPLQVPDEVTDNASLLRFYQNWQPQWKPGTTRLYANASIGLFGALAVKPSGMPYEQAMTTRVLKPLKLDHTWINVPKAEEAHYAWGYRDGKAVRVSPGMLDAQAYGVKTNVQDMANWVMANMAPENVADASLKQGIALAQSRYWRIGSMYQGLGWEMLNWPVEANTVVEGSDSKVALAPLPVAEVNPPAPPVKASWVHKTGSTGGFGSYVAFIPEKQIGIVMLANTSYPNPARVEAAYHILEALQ
Method in brief: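 P99 β-lactamase, taken from the soluble fraction of an Enterobacter cloacae 293HT6 lysate, was assayed at 37° C. in 50 mM sodium phosphate buffer pH7.0 with 100 μM Nitrocefin as the chromogenic substrate. Hydrolysis was followed kinetically at 485 nm at initial speed, with and without a 5 mn enzyme–inhibitor preincubation. Inhibitors were tested at 6 or 8 concentrations in duplicate, and IC50 was fitted with GraFit.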

[15] = 100 μM Nitrocefin, 50 mM sodium phosphate buffer pH7.0, 37° C., read-out: IC50 nM/P99

SMILES: CN(C)c1ccc(NC(=O)[C@H]2CC[C@@H]3CN2C(=O)N3OS(=O)(=O)[O-])cc1.[Na+] (relative stereo) [Example 40, sodium salt of trans-N-[4-(dimethylamino)phenyl]-7-oxo-6-(sulphooxy)-1,6-diazabicyclo[3.2.1]octane-2-carboxamide]
- MIC of Cefotaxime in combination with the compound [1]: 0.6 µg/mL
- MIC of Piperacillin in combination with the compound [1]: >40 µg/mL
- MIC of Cefotaxime in combination with the compound [2]: <=0.04 μg/ml
- MIC of Piperacillin in combination with the compound [2]: >40 µg/mL
- MIC of Cefotaxime in combination with the compound [3]: <=0.04 μg/ml
- MIC of Piperacillin in combination with the compound [3]: 10 µg/mL
- MIC of Piperacillin in combination with the compound [4]: 20 µg/mL
- MIC of Cefotaxime in combination with the compound [4]: <=0.04 μg/ml
- MIC of Cefotaxime in combination with the compound [5]: >40 µg/mL
- MIC of Piperacillin in combination with the compound [5]: >40 µg/mL
- MIC of Cefotaxime in combination with the compound [6]: 2.5 µg/mL
- MIC of Piperacillin in combination with the compound [6]: 0.6 µg/mL
- MIC of Cefotaxime in combination with the compound [7]: 1.2 µg/mL
- MIC of Piperacillin in combination with the compound [7]: >40 µg/mL
- MIC of Cefotaxime in combination with the compound [8]: >40 µg/mL
- MIC of Piperacillin in combination with the compound [8]: >40 µg/mL
- MIC of Cefotaxime in combination with the compound [9]: 0.15 µg/mL
- MIC of Piperacillin in combination with the compound [9]: >40 µg/mL
- MIC of Piperacillin in combination with the compound [10]: >40 µg/mL
- MIC of Cefotaxime in combination with the compound [10]: >40 µg/mL
- MIC of Cefotaxime in combination with the compound [11]: <=0.04 μg/ml
- MIC of Piperacillin in combination with the compound [11]: >40 µg/mL
- MIC of Cefotaxime in combination with the compound [12]: 0.08 µg/mL
- MIC of Piperacillin in combination with the compound [12]: 1.2 µg/mL
- IC50 [13]: 51 nM
- IC50 [14, 15]: 96 nM

SMILES: O=C(NCCc1cccnc1)[C@H]1CC[C@@H]2CN1C(=O)N2OS(=O)(=O)[O-].[Na+] (relative stereo) [Example 36, sodium salt of trans-7-oxo-N-[2-(3-pyridinyl)ethyl]-6-(sulphooxy)-1,6-diazabicyclo[3.2.1]octane-2-carboxamide]
- MIC of Cefotaxime in combination with the compound [1]: 0.3 µg/mL
- MIC of Piperacillin in combination with the compound [1]: 40 µg/mL
- MIC of Cefotaxime in combination with the compound [2]: <=0.04 μg/ml
- MIC of Piperacillin in combination with the compound [2]: 20 µg/mL
- MIC of Cefotaxime in combination with the compound [3]: <=0.04 μg/ml
- MIC of Piperacillin in combination with the compound [3]: 5 µg/mL
- MIC of Piperacillin in combination with the compound [4]: 20 µg/mL
- MIC of Cefotaxime in combination with the compound [4]: <=0.04 μg/ml
- MIC of Cefotaxime in combination with the compound [5]: 40 µg/mL
- MIC of Piperacillin in combination with the compound [5]: >40 µg/mL
- MIC of Cefotaxime in combination with the compound [6]: 1.2 µg/mL
- MIC of Piperacillin in combination with the compound [6]: 1.2 µg/mL
- MIC of Cefotaxime in combination with the compound [7]: 0.3 µg/mL
- MIC of Piperacillin in combination with the compound [7]: >40 µg/mL
- MIC of Cefotaxime in combination with the compound [8]: 40 µg/mL
- MIC of Piperacillin in combination with the compound [8]: >40 µg/mL
- MIC of Cefotaxime in combination with the compound [9]: <=0.04 μg/ml
- MIC of Piperacillin in combination with the compound [9]: 20 µg/mL
- MIC of Piperacillin in combination with the compound [10]: 20 µg/mL
- MIC of Cefotaxime in combination with the compound [10]: 20 µg/mL
- MIC of Cefotaxime in combination with the compound [11]: <=0.04 μg/ml
- MIC of Piperacillin in combination with the compound [11]: 40 µg/mL
- MIC of Cefotaxime in combination with the compound [12]: 0.08 µg/mL
- MIC of Piperacillin in combination with the compound [12]: 1.2 µg/mL
- IC50 [13]: 23 nM
- IC50 [14, 15]: 110 nM

SMILES: NC(=O)CNC(=O)C1CCC2CN1C(=O)N2OS(=O)(=O)O (stereo not drawn) [Example 45, sodium salt of trans-N-(2-amino-2-oxoethyl)-7-oxo-6-(sulphooxy)-1,6-diazabicyclo[3.2.1]octane-2-carboxamide]
- MIC of Piperacillin in combination with the compound [1]: 2.5 µg/mL
- MIC of Piperacillin in combination with the compound [2]: 2.5 µg/mL
- MIC of Piperacillin in combination with the compound [3]: 1.2 µg/mL
- MIC of Piperacillin in combination with the compound [4]: 10 µg/mL
- MIC of Piperacillin in combination with the compound [5]: >40 µg/mL
- MIC of Piperacillin in combination with the compound [6]: 1.2 µg/mL
- MIC of Piperacillin in combination with the compound [7]: 5 µg/mL
- MIC of Piperacillin in combination with the compound [8]: >40 µg/mL
- MIC of Piperacillin in combination with the compound [9]: 2.5 µg/mL
- MIC of Piperacillin in combination with the compound [10]: 1.2 µg/mL
- MIC of Piperacillin in combination with the compound [11]: 2.5 µg/mL
- MIC of Piperacillin in combination with the compound [12]: 0.6 µg/mL
- IC50 [13]: 12 nM
- IC50 [14]: 60 nM

SMILES: NC(=O)Nc1cccc(NC(=O)[C@H]2CC[C@@H]3CN2C(=O)N3OS(=O)(=O)[O-])c1.[Na+] (relative stereo) [Example 46, sodium salt of trans-N-[3-[(aminocarbonyl)amino]phenyl]-7-oxo-6-(sulphooxy)-1,6-diazabicyclo[3.2.1]octane-2-carboxamide]
- MIC of Piperacillin in combination with the compound [1]: 2.5 µg/mL
- MIC of Piperacillin in combination with the compound [2]: >40 µg/mL
- MIC of Piperacillin in combination with the compound [3]: 5 µg/mL
- MIC of Piperacillin in combination with the compound [4]: 10 µg/mL
- MIC of Piperacillin in combination with the compound [5]: >40 µg/mL
- MIC of Piperacillin in combination with the compound [6]: 0.6 µg/mL
- MIC of Piperacillin in combination with the compound [7]: 40 µg/mL
- MIC of Piperacillin in combination with the compound [8]: >40 µg/mL
- MIC of Piperacillin in combination with the compound [9]: >40 µg/mL
- MIC of Piperacillin in combination with the compound [10]: >40 µg/mL
- MIC of Piperacillin in combination with the compound [11]: >40 µg/mL
- MIC of Piperacillin in combination with the compound [12]: 1.2 µg/mL
- IC50 [13]: 26 nM
- IC50 [14, 15]: 70 nM
